Counter-ions that a name gives are not always drawn.
Columns and labels:
[1] = biological target: 5-HT2B receptors (Homo sapiens, UniProt P41595); test: 5-HT2B agonist functional activity assay; assay type: cell-based
Description: (§1) Further, the compounds of the invention may be tested in binding assays and functional activity assays by well known methods for other physiologically important receptors such as, but not limited to, the hERG channel, other serotonin receptors (specifically 5-HT1A, 5-HT1B, 5-HT1D, 5-HT1E, 5-HT1F receptors, lack of agonist activity at 5-HT2B receptors, 5-HT2C, 5-HT4, 5-HTS, 5-HT6, and 5-HT7 receptors), muscarinic receptors, dopaminergic receptors (specifically D1, D2, and D3), GABAA receptors, adrenergic receptors and monoamine transporters. Certain exemplified compounds are tested at these receptors and are shown to lack significant activity.

[2] = biological target: Adrenergic alpha2C (Homo sapiens, UniProt P18825); test: Adrenergic alpha2C binding
Sequence of Adrenergic alpha2C (P18825 whole entry): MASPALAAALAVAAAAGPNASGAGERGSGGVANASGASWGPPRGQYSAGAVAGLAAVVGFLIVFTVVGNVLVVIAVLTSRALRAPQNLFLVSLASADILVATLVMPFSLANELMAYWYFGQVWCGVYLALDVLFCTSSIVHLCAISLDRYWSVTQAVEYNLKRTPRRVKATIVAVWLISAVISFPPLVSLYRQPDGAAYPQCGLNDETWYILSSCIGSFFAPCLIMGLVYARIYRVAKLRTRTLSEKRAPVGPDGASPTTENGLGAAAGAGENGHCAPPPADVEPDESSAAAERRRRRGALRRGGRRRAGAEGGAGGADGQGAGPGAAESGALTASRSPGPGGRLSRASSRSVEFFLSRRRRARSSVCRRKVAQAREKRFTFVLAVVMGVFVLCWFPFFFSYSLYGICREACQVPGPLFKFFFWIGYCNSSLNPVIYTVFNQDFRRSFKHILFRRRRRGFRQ
Description: as §1

[3] = biological target: 5-HT1D (Homo sapiens, UniProt P28221); test: 5-HT1D binding
Sequence of 5-HT1D (P28221 whole entry, species assumed): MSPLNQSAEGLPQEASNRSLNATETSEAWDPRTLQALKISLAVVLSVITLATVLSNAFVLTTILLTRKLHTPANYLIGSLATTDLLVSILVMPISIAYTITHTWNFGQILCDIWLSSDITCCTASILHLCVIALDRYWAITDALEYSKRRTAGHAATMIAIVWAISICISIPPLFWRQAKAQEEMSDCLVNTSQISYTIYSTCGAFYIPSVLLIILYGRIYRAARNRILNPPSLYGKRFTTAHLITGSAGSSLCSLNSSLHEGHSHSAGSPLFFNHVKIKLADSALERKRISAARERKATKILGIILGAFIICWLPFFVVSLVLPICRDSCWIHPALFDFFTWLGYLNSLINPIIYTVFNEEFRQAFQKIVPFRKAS
Description: as §1

[4] = biological target: Dopamine D2 (Homo sapiens, UniProt P14416); test: Dopamine D2 binding
Sequence of Dopamine D2 (P14416 whole entry): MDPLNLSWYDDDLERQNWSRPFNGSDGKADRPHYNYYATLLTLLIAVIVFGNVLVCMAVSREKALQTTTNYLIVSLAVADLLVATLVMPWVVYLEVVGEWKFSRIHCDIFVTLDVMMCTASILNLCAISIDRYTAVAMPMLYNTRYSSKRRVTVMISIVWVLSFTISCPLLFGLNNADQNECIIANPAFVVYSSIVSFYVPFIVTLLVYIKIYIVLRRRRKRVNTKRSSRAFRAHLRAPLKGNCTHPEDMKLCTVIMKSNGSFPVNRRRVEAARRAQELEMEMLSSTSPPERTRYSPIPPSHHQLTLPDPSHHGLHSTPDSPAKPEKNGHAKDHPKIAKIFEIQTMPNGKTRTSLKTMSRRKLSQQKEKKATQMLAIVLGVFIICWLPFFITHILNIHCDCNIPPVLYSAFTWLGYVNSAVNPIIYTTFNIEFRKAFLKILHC
Description: as §1

[5] = biological target: Serotonin Transporter (Homo sapiens, UniProt P31645); test: Serotonin transporter assay; assay type: binding; conditions: dihydrochloride
Sequence of Serotonin Transporter (P31645 whole entry): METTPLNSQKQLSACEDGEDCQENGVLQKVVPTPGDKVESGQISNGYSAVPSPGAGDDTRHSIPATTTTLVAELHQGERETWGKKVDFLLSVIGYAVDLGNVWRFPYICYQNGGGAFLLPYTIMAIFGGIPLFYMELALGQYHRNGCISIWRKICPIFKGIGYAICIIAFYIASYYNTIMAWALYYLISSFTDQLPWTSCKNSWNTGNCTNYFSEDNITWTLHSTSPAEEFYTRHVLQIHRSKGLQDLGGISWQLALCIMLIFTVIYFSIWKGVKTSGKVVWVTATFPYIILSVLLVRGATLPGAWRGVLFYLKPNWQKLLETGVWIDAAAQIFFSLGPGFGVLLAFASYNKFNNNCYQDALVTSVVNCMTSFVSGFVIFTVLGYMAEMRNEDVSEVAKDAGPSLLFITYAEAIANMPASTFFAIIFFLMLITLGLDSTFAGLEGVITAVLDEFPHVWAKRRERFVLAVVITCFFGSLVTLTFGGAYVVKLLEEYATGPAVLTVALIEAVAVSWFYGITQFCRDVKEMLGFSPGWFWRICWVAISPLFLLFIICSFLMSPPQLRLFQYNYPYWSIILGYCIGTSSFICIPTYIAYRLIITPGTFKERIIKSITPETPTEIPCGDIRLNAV
Description: as §1

[6] = biological target: Norepinephrine Transport (Homo sapiens, UniProt P23975); test: Norepinephrine transporter assay; assay type: binding; conditions: dihydrochloride
Sequence of Norepinephrine Transport (P23975 whole entry): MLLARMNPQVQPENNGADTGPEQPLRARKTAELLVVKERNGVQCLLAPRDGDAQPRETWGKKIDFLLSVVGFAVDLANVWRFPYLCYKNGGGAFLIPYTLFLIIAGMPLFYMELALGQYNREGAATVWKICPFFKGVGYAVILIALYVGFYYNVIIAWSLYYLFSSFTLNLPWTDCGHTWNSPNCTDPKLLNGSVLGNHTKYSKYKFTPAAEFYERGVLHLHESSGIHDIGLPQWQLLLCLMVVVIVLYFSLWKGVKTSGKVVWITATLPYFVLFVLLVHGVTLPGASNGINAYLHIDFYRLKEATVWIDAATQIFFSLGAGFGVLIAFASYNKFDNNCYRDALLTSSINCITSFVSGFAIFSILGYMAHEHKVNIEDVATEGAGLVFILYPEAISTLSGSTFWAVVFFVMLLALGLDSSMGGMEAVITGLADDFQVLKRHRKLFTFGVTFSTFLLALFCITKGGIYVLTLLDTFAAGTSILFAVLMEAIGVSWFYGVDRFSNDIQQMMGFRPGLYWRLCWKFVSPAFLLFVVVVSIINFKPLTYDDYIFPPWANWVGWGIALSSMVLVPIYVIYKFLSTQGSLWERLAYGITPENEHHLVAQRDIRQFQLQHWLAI
Description: as §1

[7] = biological target: 5-HT1F (Homo sapiens, UniProt P30939); test: 5-HT1F binding
Sequence of 5-HT1F (P30939 whole entry, species assumed): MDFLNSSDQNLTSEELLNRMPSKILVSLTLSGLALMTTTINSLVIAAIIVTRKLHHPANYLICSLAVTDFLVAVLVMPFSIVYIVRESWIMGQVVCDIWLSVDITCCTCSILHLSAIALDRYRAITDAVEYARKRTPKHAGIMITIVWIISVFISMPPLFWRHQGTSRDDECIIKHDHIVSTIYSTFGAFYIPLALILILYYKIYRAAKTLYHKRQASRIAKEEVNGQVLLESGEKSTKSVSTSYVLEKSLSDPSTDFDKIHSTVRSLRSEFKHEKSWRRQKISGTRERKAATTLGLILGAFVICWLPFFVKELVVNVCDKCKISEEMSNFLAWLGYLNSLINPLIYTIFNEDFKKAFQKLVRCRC
Description: as §1

[8] = biological target: human recombinant H1 receptor (Homo sapiens, UniProt P35367); test: H1 inverse agonism (IP1 accumulation in HEK293/hm H1 cells); assay type: cell-based; design: expressed in transfected cells; host or cells: HEK293 (HEK293/hm H1 clone R-40)
Sequence of human recombinant H1 receptor (P35367 whole entry): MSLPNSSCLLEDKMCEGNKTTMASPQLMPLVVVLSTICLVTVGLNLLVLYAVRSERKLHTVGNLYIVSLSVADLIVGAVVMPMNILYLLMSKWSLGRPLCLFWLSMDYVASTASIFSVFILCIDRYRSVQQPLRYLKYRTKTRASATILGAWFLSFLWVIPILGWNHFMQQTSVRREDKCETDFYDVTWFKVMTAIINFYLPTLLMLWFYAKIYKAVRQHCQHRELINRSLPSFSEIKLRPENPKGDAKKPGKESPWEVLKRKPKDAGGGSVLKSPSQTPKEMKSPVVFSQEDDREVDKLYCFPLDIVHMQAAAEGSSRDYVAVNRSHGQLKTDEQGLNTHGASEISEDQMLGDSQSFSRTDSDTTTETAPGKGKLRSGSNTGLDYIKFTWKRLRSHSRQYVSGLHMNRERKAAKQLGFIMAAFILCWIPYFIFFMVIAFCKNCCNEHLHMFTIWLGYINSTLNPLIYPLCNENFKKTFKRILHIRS

[9] = biological target: T1, recombinant 5-HT2c receptor (human) (Homo sapiens, UniProt P28335); test: 5-HT2c competition binding assay ([125I]-DOI SPA)
T1 construct: expressed in transfected cells
T1 sequence (P28335 33-458): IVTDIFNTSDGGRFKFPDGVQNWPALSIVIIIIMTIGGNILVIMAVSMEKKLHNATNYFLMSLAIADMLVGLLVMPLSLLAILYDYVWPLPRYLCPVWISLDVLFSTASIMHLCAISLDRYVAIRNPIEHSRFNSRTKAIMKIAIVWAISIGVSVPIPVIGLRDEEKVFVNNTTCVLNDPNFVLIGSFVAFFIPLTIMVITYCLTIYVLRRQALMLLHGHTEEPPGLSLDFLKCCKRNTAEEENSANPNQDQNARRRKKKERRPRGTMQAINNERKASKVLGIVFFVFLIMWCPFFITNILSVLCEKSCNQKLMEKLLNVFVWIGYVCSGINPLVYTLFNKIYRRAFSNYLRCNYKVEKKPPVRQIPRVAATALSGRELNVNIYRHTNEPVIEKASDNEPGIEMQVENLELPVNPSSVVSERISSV
Procedure: [^125I]-(±)DOI binding experiments are carried out in SPA 96-well format. Membranes used in this assay are prepared from AV-12 cells stably expressing recombinant 5-HT2c receptor (human). The incubation is initiated by the addition of a mixture of WGA PVT SPA beads (0.5 mg/well, Perkin Elmer (MA, USA), RPNQ0001) and 2.5 μg membranes to assay buffer (50 mM Tris-HCl, 10 mM MgCl2, 0.5 mM EDTA, 10 μM pargyline, 0.1% ascorbic acid, pH7.4) containing 0.2 nM [[^125I]-(±)DOI and varying concentrations of the test compound (10 point concentration response curves). Non-specific binding is determined in the presence of 20 μM 1-(1-Naphthyl)piperazine. Samples are incubated for four hours at room temperature (22° C.) and then read in a Microbeta Trilux.
Curves are evaluated using a 4-parameter logistic nonlinear equation to obtain the concentration of competitor causing 50% inhibition of radioligand binding (IC50). Equilibrium dissociation constants (Ki) are calculated according to the equation Ki=IC50/(1+L/Kd), where L equals the concentration of radioligand used in the experiment and Kd equals the equilibrium dissociation constant of the radioligand for the receptor, determined from standard saturation analysis or homologous competition experiments. […]

[10] = biological target: T2, 5-HT2A receptor (Mus musculus, UniProt P35363); test: Inhibition of DOI induced headshake activity; assay type: in vivo; conditions: mice, 10 mg/kg PO, 60 minutes pre-treatment, DOI 3 mg/kg
T2 construct: male C57BL/6J mice (20-25 g, Charles River); from tissue; host or cells: living C57BL/6J mouse (whole animal, behavioural read-out)
T2 sequence (P35363 whole entry): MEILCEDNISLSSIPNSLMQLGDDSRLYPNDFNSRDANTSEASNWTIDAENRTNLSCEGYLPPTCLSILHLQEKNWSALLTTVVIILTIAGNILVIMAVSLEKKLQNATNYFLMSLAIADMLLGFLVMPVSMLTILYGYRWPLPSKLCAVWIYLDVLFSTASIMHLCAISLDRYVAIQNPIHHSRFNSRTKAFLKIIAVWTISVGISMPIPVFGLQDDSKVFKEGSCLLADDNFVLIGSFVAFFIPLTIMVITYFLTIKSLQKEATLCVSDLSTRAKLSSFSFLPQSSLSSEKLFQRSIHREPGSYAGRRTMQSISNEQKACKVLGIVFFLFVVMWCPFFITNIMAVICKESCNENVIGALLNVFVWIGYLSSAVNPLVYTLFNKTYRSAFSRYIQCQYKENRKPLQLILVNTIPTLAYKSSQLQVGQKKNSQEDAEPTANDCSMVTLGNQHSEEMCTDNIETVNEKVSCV
Procedure: (see for example Bartoszyk G D, van Amsterdam C, Böttcher H, Seyfried C A. EMD 281014, a new selective serotonin 5-HT2A receptor antagonist. Eur J Pharmacol. 2003 473: 229-230.) Briefly, male C57BL/6J mice (20-25 g, Charles River) are housed in standard housing conditions (32 mice in a large IVC cage, 07.00 to 19.00 light phase, constant temperature (19-23° C.) and humidity (50%+/−10), ad lib food and water). Mice received either vehicle (0.25% Methyl cellulose), DOI (3 mg/kg in saline) or test compound at 10 mg/kg PO plus DOI (3 mg/kg in saline). Test compounds are individually evaluated in groups of four per experiment with n=4 for each compound, together with vehicle and DOI+vehicle (n=8). After a test compound pre-treatment time of 60 minutes the mice receive either vehicle (saline) or 3 mg/kg DOI dosed subcutaneously, and are then placed into clear perspex observation chambers. […] The data is analyzed using an ANOVA and post-hoc Dunnet's Test. Exemplified compounds are tested essentially as described and are found to inhibit the DOI induced headshake response at greater than 90% at 10 mg/kg. The compound of example 13 is tested essentially as described and is found to inhibit the DOI induced headshake response at 100% at 10 mg/kg.

Sequence of 5-HT2B receptors (P41595 whole entry): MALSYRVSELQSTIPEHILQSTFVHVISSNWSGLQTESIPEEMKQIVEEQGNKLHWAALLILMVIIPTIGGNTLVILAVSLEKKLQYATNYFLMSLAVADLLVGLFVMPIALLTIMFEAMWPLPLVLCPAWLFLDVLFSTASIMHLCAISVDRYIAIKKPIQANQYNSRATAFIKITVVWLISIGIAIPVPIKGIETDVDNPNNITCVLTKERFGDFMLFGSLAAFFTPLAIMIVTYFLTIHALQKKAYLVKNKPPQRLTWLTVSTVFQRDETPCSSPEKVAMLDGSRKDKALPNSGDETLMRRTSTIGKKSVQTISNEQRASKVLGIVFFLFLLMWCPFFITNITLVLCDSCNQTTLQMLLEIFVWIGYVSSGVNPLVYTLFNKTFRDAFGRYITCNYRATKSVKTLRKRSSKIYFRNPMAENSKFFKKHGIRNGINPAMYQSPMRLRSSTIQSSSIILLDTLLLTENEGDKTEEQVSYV

## Cc1cc2n(c1)Cc1cc(Cl)ccc1N=C2N1CCN(CC(C)(C)C(=O)O)CC1 [Example 13, 3-[4-(7-Chloro-2-methyl-5H-pyrrolo[2,1-c][1,4]benzodiazepin-11-yl)piperazin-1-yl]-2,2-dimethylpropanoic acid dihydrochloride]
[1]
  EC50: > 10 µM
[2]
  Ki: > 5.33 µM
[3]
  Ki: > 8.55 µM
[4]
  Ki: 3.42 µM
[5]
  Serotonin Transporter: >515
[6]
  Norepinephrine Transport: >526
[7]
  Ki: > 8.25 µM
[8]; IP1 accumulation, HEK293/hm H1 cells
  IC50: 0.0539 ± 0.037 µM
[8]; relative to positive control Tripelennamine 10 μM
  suppression of constitutive activity (negative efficacy): 126±6%
[9]
  Ki: 2.37 µM
[10]
  inhibition of DOI induced headshake response: 100%
